In general, fraction unbound refers to the share of the substance not bound to proteins or other matrix. A lower fraction unbound goes with little free substance. A word on the solubility: it is the dissolved amount per volume that the medium holds. A lower solubility goes with little dissolved substance. Usually bioavailability stands for dose-corrected exposure relative to a reference, in per cent. Lower therefore signals little systemic uptake.

≈ marks a conversion by molar mass, not a printed value. Where two headings read alike, the source gives them in different places.

In data set [1] the test system is primary pulmonary fibroblasts. In words: Antifibrotic efficacy in primary pulmonary fibroblasts. It is filed as cell-based.
The nature of the next data set: in vitro. The data set is classed as in vitro ADME. Particulars: for fraction unbound: plasma. Here is the method:
Plasma protein binding assays were conducted in triplicate for compounds PT-2, PT-14, PT-28, and PT-30, with artesunate, DHA, and warfarin as comparators.

The subject of data set [2] is bleomycin injury mouse skin model. As to the kind of experiment: Bleomycin injury mouse skin model. It is filed as in vivo. The conditions noted are these: topical administration (50 μL, 100 μM in 0.1% DMSO/PBS).
A short description of a further data set: Solubility of PT-30. It is filed as physicochemical. As to the method: (§1) PT-30, DHA 5-oxo-2,6-diazaspiro[3.4]octane-2-carboxylate, (3R,5aS,6R,8aS,9R,12S,12aR)-decahydro-3,6,9-trimethyl-3,12-epoxy-12H-pyrano[4,3-j]-1,2-benzodioxepin-10-yl 5-oxo-2,6-diazaspiro[3.4]octane-2-carboxylate, was a white crystalline solid as prepared. […] PT-30 had low solubility (<0.1 mg/mL) in aqueous acidic conditions and in simulated gastric fluid, and a solubility of about 0.7 mg/mL in fasted-state and fed-state simulated intestinal fluids.

A further data set is described as follows: Hygroscopicity of PT-30. The data set is classed as physicochemical. The conditions noted are these: from 40% to 95% RH. Here is the method:
as §1

A short description of data set [3]: Solid-state stability of PT-30. The data set is classed as physicochemical. As to the method:
as §1

Data set [4] can be described thus: Intravenous and oral pharmacokinetics in mice. The data set is classed as in vivo. Particulars: mouse, plasma, male C57BL/6J mice. As to the method: The intravenous (IV) and oral (PO) pharmacokinetics of the PT compounds were measured in 6-10 week-old male C57BL/6J mice, using three mice/group. The test compounds were formulated in an appropriate water-based vehicle to give a clear solution for IV administration, or a clear solution or uniform suspension for PO administration. Animals were dosed within 4 hours of the preparation of the formulations; with the dose volume being determined by the animal's body weight measured on the morning of the dosing day. Blood samples (about 25 μL per time point) were taken at 5 and 15 minutes and 1, 3, and 5 hours after dosing, into pre-chilled EDTA-K2 tubes and kept on wet ice until centrifugation. The tubes were centrifuged at 3200×g at about 4° C. for 10 minutes, and the plasma analyzed by LC-MS/MS.

In data set [5] the test system is CCl4 injury mouse liver model. As to the kind of experiment: CCl4 injury mouse liver model. The data set is classed as in vivo. Particulars: oral administration.
The subject of data set [6] is Induced pluripotent stem cell-derived cardiac fibroblasts (ACTA2-GFP). In words: Antifibrotic effects in TGF-β-activated iPSC-derived cardiac fibroblasts (ACTA2-GFP fluorescence). It is filed as cell-based. Particulars: TGF-β-activated iPSC-derived cardiac fibroblasts. The source says: Induced pluripotent stem cell-derived cardiac fibroblasts were constructed containing a fusion of the alpha-smooth muscle actin to the green fluorescent protein (ACTA2-GFP) construct. ACTA2 is a myofibroblast marker, such that the fibroblasts fluoresce with an intensity dependent on the extent of fibrosis.

Data set [7] has as its system MD2 signaling pathway (HEK Blue-TLR4 cells). In words: HEK Blue-TLR4 assay (MD2 pathway). It is filed as cell-based. Particulars: 1 h preincubation, 10 ng/mL lipopolysaccharide, read after 20 hours at 655 nm. Here is the method:
HEK Blue-TLR4 cells were plated in detection media, preincubated with vehicle or PT-2, PT-14, or PT-30 dissolved in vehicle (with artesunate, DHA, and artemisinin comparators) for 1 h, then co-stimulated with 10 ng/mL lipopolysaccharide. Reporter activity was read after 20 hours at 655 nm in a spectrophotometer. The PT compounds were active in this assay, showing that they inhibit the MD2 signaling pathway.

`C[C@@H]1CC[C@H]2[C@@H](C)C(OC(=O)N3CC4(CCNC4=O)C3)O[C@H]3O[C@@]4(C)CC[C@@H]1[C@]32OO4` (stereo partly drawn) [PT-30, (3R,5aS,6R,8aS,9R,12S,12aR)-decahydro-3,6,9-trimethyl-3,12-epoxy-12H-pyrano[4,3-j]-1,2-benzodioxepin-10-yl 5-oxo-2,6-diazaspiro[3.4]octane-2-carboxylate]: the “antifibrotic efficacy, effect on acta2, colla1, and CTGF” value in [1] is given as “demonstrated antifibrotic efficacy”. For the same compound, the recovery is 84.9% in “in vitro” (human) and 87.6% in the data set “in vitro” (mouse). For the same compound, the fraction unbound was 0.455 in the data set “in vitro” (human) and 0.079 in the data set “in vitro” (mouse). Moreover, the antifibrotic efficacy entry in data set [2] and in data set [5] was “demonstrated antifibrotic efficacy” throughout. The solubility in the data set “Solubility of PT-30” (aqueous acidic conditions, aqueous buffer) is under 100 µg/mL; in “Solubility of PT-30” (fasted-state simulated intestinal fluid, fassif), about 700 µg/mL (≈ 1600 µM); in the data set “Solubility of PT-30” (fed-state simulated intestinal fluid, fessif), about 700 µg/mL (≈ 1600 µM); in the data set “Solubility of PT-30” (simulated gastric fluid), under 100 µg/mL. The “solubility in organic solvents” value in “Solubility of PT-30” (common organic solvents, greatest in methanol and tetrahydrofuran) is reported as “soluble in common organic solvents”. For the same compound, the “hygroscopicity, water uptake” value in “Hygroscopicity of PT-30” is given as 0.5%. For the same compound, the “chemical and crystal form stability” value in data set [3] (25° C./60% RH for 1 week) and in data set [3] (40° C./75% RH for 1 week) was “chemically stable without crystal form change” in each case. In addition, in [4] (PO), the bioavailability worked out at 73%. The compound further returned a clearance in data set [4] (IV) of 30 mL/min/kg. The AUC(0-t) in data set [4] (IV, read-out: IV AUC0-last) was 5300 ng·h/mL; in data set [4] (PO, read-out: PO AUC0-last) it was 40900 ng·h/mL. Moreover, the half-life in data set [4] (IV, read-out: IV T1/2 (converted)) was 13.2 min; in data set [4] (PO, read-out: PO T1/2 (converted)), 20.4 min. Also, the Vd in data set [4] (IV, read-out: IV VD,ss) came out at 0.6 L/kg. In addition, the “antifibrotic efficacy in this model” value in data set [6] is recorded as “demonstrated antifibrotic efficacy”. For the same compound, in [7], the “activity in HEK Blue-TLR4 reporter assay (inhibition of MD2 signaling pathway)” value was “active”.
